Test results reported in ChEMBL document CHEMBL5442219.

Legend:
Conditions in all cases: Compound concentration 10 µM
[1] = target: T1, Alpha-2B adrenergic receptor (Homo sapiens) (UniProt P18089)
T1 sequence (whole entry): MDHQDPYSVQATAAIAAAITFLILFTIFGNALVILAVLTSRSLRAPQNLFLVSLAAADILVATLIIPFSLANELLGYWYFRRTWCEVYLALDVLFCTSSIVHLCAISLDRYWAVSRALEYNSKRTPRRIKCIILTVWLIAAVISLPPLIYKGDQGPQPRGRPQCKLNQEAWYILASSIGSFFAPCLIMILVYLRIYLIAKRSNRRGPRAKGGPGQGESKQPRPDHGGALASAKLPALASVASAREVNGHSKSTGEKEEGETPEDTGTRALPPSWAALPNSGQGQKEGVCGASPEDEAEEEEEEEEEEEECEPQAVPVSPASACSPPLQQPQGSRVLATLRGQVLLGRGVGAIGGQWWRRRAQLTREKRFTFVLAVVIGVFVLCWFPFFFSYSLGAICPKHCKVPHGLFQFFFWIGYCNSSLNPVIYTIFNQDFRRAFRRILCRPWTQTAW

[2] = target: Translocator protein (Homo sapiens) (UniProt P30536)
Sequence of Translocator protein (Homo sapiens) (P30536 whole entry): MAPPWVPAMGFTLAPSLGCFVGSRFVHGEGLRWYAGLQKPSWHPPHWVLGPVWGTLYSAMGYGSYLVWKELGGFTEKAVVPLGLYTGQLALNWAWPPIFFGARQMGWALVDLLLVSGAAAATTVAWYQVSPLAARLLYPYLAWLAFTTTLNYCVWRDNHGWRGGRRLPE

[3] = target: T2, Muscarinic acetylcholine receptor M5 (Homo sapiens) (UniProt P08912)
T2 sequence (whole entry): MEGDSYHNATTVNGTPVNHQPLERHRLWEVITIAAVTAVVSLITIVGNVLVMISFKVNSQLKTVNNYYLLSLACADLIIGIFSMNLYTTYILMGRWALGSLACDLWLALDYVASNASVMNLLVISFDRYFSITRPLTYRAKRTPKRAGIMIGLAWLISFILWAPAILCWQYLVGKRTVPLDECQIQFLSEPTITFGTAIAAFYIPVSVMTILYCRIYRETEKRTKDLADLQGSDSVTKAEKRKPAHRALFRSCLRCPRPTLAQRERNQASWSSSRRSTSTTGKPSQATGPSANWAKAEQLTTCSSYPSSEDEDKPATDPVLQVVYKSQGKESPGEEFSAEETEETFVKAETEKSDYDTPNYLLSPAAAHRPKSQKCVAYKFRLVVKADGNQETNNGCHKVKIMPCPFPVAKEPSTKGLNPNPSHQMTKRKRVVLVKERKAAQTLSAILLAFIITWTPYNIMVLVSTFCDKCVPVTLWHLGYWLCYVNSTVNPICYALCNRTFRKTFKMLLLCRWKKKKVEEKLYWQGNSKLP

[4] = target: T3, Alpha-2C adrenergic receptor (Homo sapiens) (UniProt P18825)
T3 sequence (whole entry): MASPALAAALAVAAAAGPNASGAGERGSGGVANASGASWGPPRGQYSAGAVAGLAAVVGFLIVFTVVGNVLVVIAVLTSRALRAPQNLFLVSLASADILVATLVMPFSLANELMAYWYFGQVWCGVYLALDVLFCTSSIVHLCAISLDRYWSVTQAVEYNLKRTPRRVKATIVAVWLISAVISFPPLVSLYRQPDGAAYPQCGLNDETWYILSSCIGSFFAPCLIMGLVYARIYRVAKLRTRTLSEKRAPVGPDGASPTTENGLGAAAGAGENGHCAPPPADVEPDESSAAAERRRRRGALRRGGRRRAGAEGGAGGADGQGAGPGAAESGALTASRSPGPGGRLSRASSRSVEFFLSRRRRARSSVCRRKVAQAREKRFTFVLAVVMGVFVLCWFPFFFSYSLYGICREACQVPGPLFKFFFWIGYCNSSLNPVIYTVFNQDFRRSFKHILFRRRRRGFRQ

[5] = target: Histamine H4 receptor (Homo sapiens) (UniProt Q9H3N8)
Sequence of Histamine H4 receptor (Homo sapiens) (Q9H3N8 whole entry): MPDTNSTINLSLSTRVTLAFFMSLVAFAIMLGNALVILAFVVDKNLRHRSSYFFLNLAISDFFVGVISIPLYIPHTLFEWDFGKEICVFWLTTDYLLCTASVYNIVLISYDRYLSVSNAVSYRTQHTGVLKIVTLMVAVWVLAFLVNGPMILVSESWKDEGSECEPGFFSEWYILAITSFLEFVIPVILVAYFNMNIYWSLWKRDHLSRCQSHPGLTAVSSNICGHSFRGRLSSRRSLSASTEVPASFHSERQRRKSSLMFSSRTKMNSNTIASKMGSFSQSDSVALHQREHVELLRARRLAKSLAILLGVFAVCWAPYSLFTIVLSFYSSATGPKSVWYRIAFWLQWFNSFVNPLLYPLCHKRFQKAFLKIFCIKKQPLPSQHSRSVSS

[6] = target: Sodium-dependent noradrenaline transporter (Homo sapiens) (UniProt P23975)
Sequence of Sodium-dependent noradrenaline transporter (Homo sapiens) (P23975 whole entry): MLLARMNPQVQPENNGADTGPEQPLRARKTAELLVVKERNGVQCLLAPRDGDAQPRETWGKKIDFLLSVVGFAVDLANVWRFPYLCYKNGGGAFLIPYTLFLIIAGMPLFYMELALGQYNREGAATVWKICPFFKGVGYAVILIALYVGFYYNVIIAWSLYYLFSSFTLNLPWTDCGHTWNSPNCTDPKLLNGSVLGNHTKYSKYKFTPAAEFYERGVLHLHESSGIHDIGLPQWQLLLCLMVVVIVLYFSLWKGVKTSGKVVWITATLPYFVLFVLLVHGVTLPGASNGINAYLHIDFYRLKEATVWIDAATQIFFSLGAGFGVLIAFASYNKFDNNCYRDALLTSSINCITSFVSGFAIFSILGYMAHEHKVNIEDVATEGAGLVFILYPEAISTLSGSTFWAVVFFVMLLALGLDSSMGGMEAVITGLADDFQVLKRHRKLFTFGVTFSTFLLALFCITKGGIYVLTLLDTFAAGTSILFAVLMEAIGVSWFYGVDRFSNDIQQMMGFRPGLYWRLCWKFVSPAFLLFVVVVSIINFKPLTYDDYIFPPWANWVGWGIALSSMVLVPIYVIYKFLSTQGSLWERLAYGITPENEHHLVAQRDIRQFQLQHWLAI

[7] = target: Delta-type opioid receptor (Homo sapiens) (UniProt P41143)
Sequence of Delta-type opioid receptor (Homo sapiens) (P41143 whole entry): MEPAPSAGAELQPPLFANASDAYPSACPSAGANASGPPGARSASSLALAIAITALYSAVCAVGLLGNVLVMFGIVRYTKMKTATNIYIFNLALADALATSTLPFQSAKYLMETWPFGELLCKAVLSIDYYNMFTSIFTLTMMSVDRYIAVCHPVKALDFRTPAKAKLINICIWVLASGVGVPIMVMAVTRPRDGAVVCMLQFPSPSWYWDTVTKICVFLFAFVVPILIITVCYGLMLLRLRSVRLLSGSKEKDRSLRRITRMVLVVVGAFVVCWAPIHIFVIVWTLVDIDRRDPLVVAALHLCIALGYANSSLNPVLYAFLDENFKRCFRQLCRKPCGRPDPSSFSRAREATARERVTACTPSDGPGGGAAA

[8] = target: Beta-2 adrenergic receptor (Homo sapiens) (UniProt P07550)
Sequence of Beta-2 adrenergic receptor (Homo sapiens) (P07550 whole entry, looked up): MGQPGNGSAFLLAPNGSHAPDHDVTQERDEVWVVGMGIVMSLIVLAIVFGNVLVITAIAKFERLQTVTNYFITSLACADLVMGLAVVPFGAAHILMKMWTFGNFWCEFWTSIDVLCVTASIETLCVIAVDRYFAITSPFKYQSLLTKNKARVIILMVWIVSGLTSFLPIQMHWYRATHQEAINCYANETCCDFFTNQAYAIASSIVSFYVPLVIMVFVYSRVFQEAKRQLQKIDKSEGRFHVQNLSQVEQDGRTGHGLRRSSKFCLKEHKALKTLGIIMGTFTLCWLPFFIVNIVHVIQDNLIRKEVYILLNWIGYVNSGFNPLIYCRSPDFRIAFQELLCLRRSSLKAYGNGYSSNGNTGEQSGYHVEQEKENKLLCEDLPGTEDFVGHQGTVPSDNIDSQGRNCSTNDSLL

[9] = target: T4, D(4) dopamine receptor (Homo sapiens) (UniProt P21917)
T4 sequence (whole entry): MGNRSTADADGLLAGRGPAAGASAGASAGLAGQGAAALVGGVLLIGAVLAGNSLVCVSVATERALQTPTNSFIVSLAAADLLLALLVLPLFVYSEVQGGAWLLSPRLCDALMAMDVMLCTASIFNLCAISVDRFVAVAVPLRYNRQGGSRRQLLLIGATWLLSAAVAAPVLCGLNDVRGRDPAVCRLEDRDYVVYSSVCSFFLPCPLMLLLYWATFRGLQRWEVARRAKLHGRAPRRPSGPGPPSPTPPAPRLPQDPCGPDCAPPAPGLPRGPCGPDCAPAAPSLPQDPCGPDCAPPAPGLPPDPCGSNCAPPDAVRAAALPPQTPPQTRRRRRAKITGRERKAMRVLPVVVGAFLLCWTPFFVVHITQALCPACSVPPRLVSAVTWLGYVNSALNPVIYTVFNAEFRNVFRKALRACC

[10] = target: T5, 5-hydroxytryptamine receptor 3A (Homo sapiens) (UniProt P46098)
T5 sequence (whole entry): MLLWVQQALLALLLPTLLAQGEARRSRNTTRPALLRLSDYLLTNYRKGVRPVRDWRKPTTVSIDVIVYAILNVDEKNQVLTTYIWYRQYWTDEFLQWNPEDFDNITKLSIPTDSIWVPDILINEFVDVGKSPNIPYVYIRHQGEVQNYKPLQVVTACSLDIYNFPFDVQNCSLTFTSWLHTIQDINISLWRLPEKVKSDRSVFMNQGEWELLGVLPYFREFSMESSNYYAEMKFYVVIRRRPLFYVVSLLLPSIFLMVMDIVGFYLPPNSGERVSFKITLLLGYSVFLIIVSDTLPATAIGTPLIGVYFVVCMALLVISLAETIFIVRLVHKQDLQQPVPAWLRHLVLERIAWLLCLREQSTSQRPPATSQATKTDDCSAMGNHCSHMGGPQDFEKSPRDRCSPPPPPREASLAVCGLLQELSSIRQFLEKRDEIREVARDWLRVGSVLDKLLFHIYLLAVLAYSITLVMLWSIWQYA

[11] = target: Muscarinic acetylcholine receptor M3 (Homo sapiens) (UniProt P20309)
Sequence of Muscarinic acetylcholine receptor M3 (Homo sapiens) (P20309 whole entry, looked up): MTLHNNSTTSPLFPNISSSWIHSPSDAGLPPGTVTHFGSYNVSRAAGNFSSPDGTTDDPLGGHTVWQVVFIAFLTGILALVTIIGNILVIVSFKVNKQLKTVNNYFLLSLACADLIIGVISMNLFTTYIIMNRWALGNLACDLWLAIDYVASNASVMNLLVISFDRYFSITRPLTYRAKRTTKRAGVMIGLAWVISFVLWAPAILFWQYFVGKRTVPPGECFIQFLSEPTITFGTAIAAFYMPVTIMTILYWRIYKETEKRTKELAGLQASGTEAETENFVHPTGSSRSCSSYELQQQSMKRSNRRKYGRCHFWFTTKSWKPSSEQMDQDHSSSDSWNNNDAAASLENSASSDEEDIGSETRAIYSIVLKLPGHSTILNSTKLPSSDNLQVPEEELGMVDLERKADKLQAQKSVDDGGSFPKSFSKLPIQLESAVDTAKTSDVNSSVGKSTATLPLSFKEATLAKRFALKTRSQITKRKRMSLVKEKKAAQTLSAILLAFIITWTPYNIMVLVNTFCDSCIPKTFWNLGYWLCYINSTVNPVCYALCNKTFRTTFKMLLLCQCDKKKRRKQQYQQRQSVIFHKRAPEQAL

[12] = target: Beta-1 adrenergic receptor (Homo sapiens) (UniProt P08588)
Sequence of Beta-1 adrenergic receptor (Homo sapiens) (P08588 whole entry, looked up): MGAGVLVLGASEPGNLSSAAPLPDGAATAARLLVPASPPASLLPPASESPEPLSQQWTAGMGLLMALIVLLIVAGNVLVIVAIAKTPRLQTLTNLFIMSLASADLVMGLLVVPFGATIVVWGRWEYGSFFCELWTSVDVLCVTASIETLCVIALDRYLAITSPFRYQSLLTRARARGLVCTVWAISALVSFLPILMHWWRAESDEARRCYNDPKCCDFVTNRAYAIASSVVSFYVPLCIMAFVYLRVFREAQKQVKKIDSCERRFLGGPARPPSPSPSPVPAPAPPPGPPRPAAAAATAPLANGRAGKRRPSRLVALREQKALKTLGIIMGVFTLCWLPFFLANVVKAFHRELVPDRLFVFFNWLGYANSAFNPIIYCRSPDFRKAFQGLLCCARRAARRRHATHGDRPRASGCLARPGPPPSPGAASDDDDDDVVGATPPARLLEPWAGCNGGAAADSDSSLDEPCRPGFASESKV

## CS(=O)(=O)NC[C@H]1CC[C@H](Nc2nc3c(s2)CCSc2ccccc2-3)CC1
[1]
  inhibition: 23.8%
[2]
  inhibition: 35.9%
[3]
  inhibition: -4.92%
[4]
  inhibition: 37.1%
[5]
  inhibition: -4.86%
[6]
  inhibition: 7.48%
[7]
  inhibition: 4.54%
[8]
  inhibition: 94.4%
[9]
  inhibition: 44%
[10]
  inhibition: 0.88%
[11]
  inhibition: -7.8%

## COc1cc2nc(N3CCN(C(=O)c4ccco4)CC3)nc(N)c2cc1OC
[2]
  inhibition: 75.9%
[3]
  inhibition: 3.19%
[4]
  inhibition: 97.1%
[5]
  inhibition: 1.83%
[6]
  inhibition: 26.5%
[7]
  inhibition: 4.29%
[8]
  inhibition: 1.53%
[12]
  inhibition: 2.66%
[9]
  inhibition: 27.4%
[10]
  inhibition: 2.09%

## COc1ccccc1N1CCN(CCCCNC(=O)c2ccc3ccccc3c2)CC1
[1]
  inhibition: 99.5%
[2]
  inhibition: 78.8%
[3]
  inhibition: 23.2%
[4]
  inhibition: 111%
[5]
  inhibition: 8.79%
[6]
  inhibition: 68.2%
[7]
  inhibition: -2.88%
[8]
  inhibition: 38.9%
[9]
  inhibition: 95.1%
[10]
  inhibition: 0.02%
[11]
  inhibition: 3.09%

## Clc1cccc(Cl)c1NC1=NCCN1
[2]
  inhibition: 10.8%
[3]
  inhibition: 0.71%
[4]
  inhibition: 84.7%
[5]
  inhibition: 2.9%
[6]
  inhibition: 20.9%
[7]
  inhibition: -4.61%
[8]
  inhibition: -4.25%
[12]
  inhibition: 31.6%
[9]
  inhibition: -2.87%
[10]
  inhibition: 5.96%

## CC(C)NCC(O)COc1cccc2[nH]ccc12 (configuration not stated)
[2]
  inhibition: 38.5%
[3]
  inhibition: 10.5%
[4]
  inhibition: 1.35%
[5]
  inhibition: -8.33%
[6]
  inhibition: 27.1%
[7]
  inhibition: -2.56%
[8]
  inhibition: 100%
[12]
  inhibition: 70.9%
[9]
  inhibition: 69.4%
[10]
  inhibition: -0.98%

## O=c1ccc2ccc(OCCCCN3CCN(c4cccc5sccc45)CC3)cc2[nH]1
[1]
  inhibition: 94.3%
[2]
  inhibition: -2.98%
[3]
  inhibition: 38.2%
[4]
  inhibition: 104%
[5]
  inhibition: 8%
[6]
  inhibition: 96.6%
[7]
  inhibition: -1.82%
[8]
  inhibition: 78.8%
[9]
  inhibition: 101%
[10]
  inhibition: 81.9%
[11]
  inhibition: 21.4%

## COc1ccc2[nH]cc(CCNC(C)=O)c2c1
[5]
  inhibition: -3.64%
[6]
  inhibition: -9.78%
[7]
  inhibition: -3.9%
[8]
  inhibition: -1.29%
[12]
  inhibition: 12%
[9]
  inhibition: 1.97%
[10]
  inhibition: -3.39%

## C[C@]1(C(=O)N(CCCC(=O)O)Cc2cccc(Cl)c2)CCN1C(=O)c1csc2ccccc12
[1]
  inhibition: 13.3%
[2]
  inhibition: 5.72%
[3]
  inhibition: -2.06%
[5]
  inhibition: 12.9%
[7]
  inhibition: -1.78%
[12]
  inhibition: 1.62%
[9]
  inhibition: 4.3%
[10]
  inhibition: -7.18%

## Cc1cn2cc(CC(=O)N3CCC4(CC3)CN(Cc3ccc(-n5nccn5)cc3Cl)C4)nc2s1
[1]
  inhibition: 11%
[2]
  inhibition: 0.99%
[3]
  inhibition: 71.8%
[4]
  inhibition: 35.9%
[5]
  inhibition: -5.48%
[6]
  inhibition: 44.3%
[7]
  inhibition: 18.8%
[8]
  inhibition: 67.1%
[9]
  inhibition: 50.6%
[10]
  inhibition: 1.22%
[11]
  inhibition: 98.2%

## Clc1ccc(CCCOCCCN2CCCCC2)cc1
[1]
  inhibition: 1.88%
[2]
  inhibition: -6.49%
[3]
  inhibition: 23.1%
[4]
  inhibition: 49.4%
[5]
  inhibition: -7.57%
[6]
  inhibition: 64.5%
[7]
  inhibition: -1.15%
[8]
  inhibition: -7.56%
[9]
  inhibition: 21.5%
[10]
  inhibition: 28.6%
[11]
  inhibition: 44.5%

## CCC(=O)NCC[C@@H]1CCc2ccc3c(c21)CCO3
[1]
  inhibition: 22%
[2]
  inhibition: 27.6%
[4]
  inhibition: -9.25%
[6]
  inhibition: 18%
[7]
  inhibition: -5.97%
[8]
  inhibition: 12.6%
[12]
  inhibition: 28.5%
[9]
  inhibition: -3.2%
[10]
  inhibition: 6.73%

## CN1CCCC(n2nc(Cc3ccc(Cl)cc3)c3ccccc3c2=O)CC1 (configuration not stated)
[1]
  inhibition: 79.1%
[2]
  inhibition: 12.9%
[3]
  inhibition: 43.1%
[4]
  inhibition: 64.5%
[5]
  inhibition: 1.53%
[6]
  inhibition: 31.6%
[7]
  inhibition: 24.1%
[8]
  inhibition: -8.69%
[9]
  inhibition: 85.5%
[10]
  inhibition: 96.4%
[11]
  inhibition: 57.3%

## Brc1c(NC2=NCCN2)ccc2nccnc12
[2]
  inhibition: -7.41%
[4]
  inhibition: 75.6%
[5]
  inhibition: 2.56%
[6]
  inhibition: 19.2%
[7]
  inhibition: 1.24%
[8]
  inhibition: -1.17%
[12]
  inhibition: 23.8%
[9]
  inhibition: 16.9%
[10]
  inhibition: -5.05%

## Cc1ccccc1N1CCN(S(=O)(=O)C[C@]23CC[C@H](C[C@@H]2NC(=O)[C@@H](N)CCS(C)(=O)=O)C3(C)C)CC1
[1]
  inhibition: 11.2%
[2]
  inhibition: -1.05%
[4]
  inhibition: 14.7%
[5]
  inhibition: -3.44%
[7]
  inhibition: 7.82%
[8]
  inhibition: 13.7%
[12]
  inhibition: 0.75%
[9]
  inhibition: -6.27%
[10]
  inhibition: -6.48%

## N#Cc1c(N)nc(SCc2csc(-c3ccc(Cl)cc3)n2)c(C#N)c1-c1ccc(OCCO)cc1
[1]
  inhibition: 2.13%
[2]
  inhibition: 57.6%
[4]
  inhibition: 3.52%
[5]
  inhibition: -8.37%
[6]
  inhibition: 33.5%
[8]
  inhibition: 17%
[12]
  inhibition: 26.8%
[9]
  inhibition: 38.4%
[10]
  inhibition: 1.79%

## CCc1nn2c(C)cc(C)nc2c1Cc1ccc(-c2nnc(C3CCNCC3)o2)cc1
[1]
  inhibition: 27.4%
[4]
  inhibition: 31.1%
[5]
  inhibition: -1.79%
[6]
  inhibition: -8.38%
[7]
  inhibition: -1.19%
[8]
  inhibition: 12.5%
[12]
  inhibition: -6.08%
[9]
  inhibition: -4.88%
[10]
  inhibition: 93.4%

## CNC[C@H](O)c1ccc(O)c(O)c1
[2]
  inhibition: -0.39%
[4]
  inhibition: 66.7%
[5]
  inhibition: -7.99%
[7]
  inhibition: 6.63%
[8]
  inhibition: 34.2%
[12]
  inhibition: 37%
[9]
  inhibition: 20.1%

## NC[C@H](O)c1ccc(O)c(O)c1
[1]
  inhibition: 90.6%
[2]
  inhibition: 4.34%
[4]
  inhibition: 79.4%
[6]
  inhibition: 15.2%
[7]
  inhibition: -5.14%
[8]
  inhibition: 16.9%
[12]
  inhibition: 66.2%
[9]
  inhibition: 46.9%
[10]
  inhibition: -8.31%
